Results from US8586318B2, “Restricted access media and methods for making restricted access media” (Board of Regents of the University of Nebraska, priority 2008, dated 2013).

Tests used:
[1] = tested on: anti-fluorescein antibodies; assay: Ultrafast extraction on anti-fluorescein RAM column, flow-based; format: binding, mouse
Experimental: For chromatographic studies, 200 μL injections of samples containing 0.5 nM fluorescein or 3 nM of fluorescein-BSA were made at flow rates ranging from 0.1-1.0 mL/min. The injections were performed at room temperature using 0.067 M potassium phosphate buffer (pH 7.4) as the application buffer. Two or three replicate injections were made at each flow rate onto columns containing the anti-fluorescein IA-RAM support or the corresponding control support. […] The fraction of extracted fluorescein was calculated by comparing the areas of the non-retained peaks to those obtained using a control column. […] The retained species were eluted between studies by washing the column with a 0.067 M potassium phosphate buffer (pH 2.5) for 20 minutes. Elution was followed by a column regeneration step by applying 0.067 M phosphate application buffer (pH 7.4) for 10 minutes before each new sample injection. The RAM, specifically an IA-RAM made using anti-fluorescein antibody, was tested for use in a flow-based system for the selective, ultrafast extraction of fluorescein versus a fluorescein-BSA conjugate. This was accomplished by comparing the results obtained with a RAM column to results for a control column containing only diol silica.

[2] = tested on: anti-fluorescein antibodies; assay: Static binding of fluorescein or fluorescein-BSA to anti-fluorescein RAM support; design: species or system mouse; details: 100 Å silica
Experimental: The binding properties of the anti-fluorescein IA-RAM support were initially determined before and after digestion by reacting this support with a known excess of fluorescein (sodium salt, MW=376 Da) or fluorescein-BSA conjugate (average MW=69.5 kDa). Studies were performed using anti-fluorescein antibodies covalently linked to Nucleosil Si-100 using the hydrazide-activation method. A 2 mg portion of the desired anti-fluorescein support was incubated with shaking in 1 mL of a 0.040 μg/mL fluorescein solution or 1 mL of 20 μg/mL fluorescein-BSA solution in 0.1 M potassium phosphate buffer (pH 7.4) at 4° C. for 30 minutes. The mixtures were centrifuged and the supernatant was analyzed for fluorescein or fluorescein-BSA content based on the fluorescence of the solutions. Standard solutions that contained 0.002-2.0 μg/mL fluorescein or 1-30 μg/mL of the fluorescein-BSA conjugate in 0.10 M potassium phosphate buffer (pH 7.4) were also analyzed. The amount of fluorescein or fluorescein-BSA bound to the anti-fluorescein IA-RAM supports was determined by comparing the final and initial concentrations of fluorescein or fluorescein-BSA that remained in solution. […] The fluorescein or fluorescein-BSA that was bound by anti-fluorescein antibodies was determined by determining the amount of the analytes that remained in solution after the incubation step.

- original binding capacity of the covalently linked antibodies ([2]; before papain treatment, hydrazide method, 30 minutes incubation): 0.69 (±0.01) mg/g silica
- decrease of binding capacity after treatment with papain ([2]; papain 90 minutes at 37° C., 1:100 (w/w)): 92%
Substance: fluorescein-BSA conjugate: fluorescein conjugate of bovine serum albumin, prepared using fluorescein isothiocyanate, 12 mol fluorescein/mol protein
- retention on anti-fluorescein RAM column (in words) ([1]; injected at 0.1 mL/min): no significant degree of binding
- extracted by anti-fluorescein RAM support ([1]; same conditions as used for fluorescein): less than 1%
